Values joined by “and” are separate entries in the source; they are usually repeats but may differ in a detail not shown here. Equal entries are not always repeated.
How the values were obtained:
[1] = Photophysical characterisation (absorption and emission spectra in DPBS); assay type: physicochemical; conditions: room temperature; for ε405, FBA χ ΦF: at 405 nm; for λem, max / ΦF: excitation 355 nm; for ΦF: relative to quinine sulphate
Method: Absorption spectra were recorded on a Cary 4000 spectrometer (Agilent Technologies). The emission spectra were measured on a SPEX Fluorolog 3 spectrofluorimeter (Jobin Yvon Horiba). Three consecutive emission spectra recorded at a scan rate of 600 nm min−1 were collected and averaged. The spectra of compounds 7 and 17 in DPBS were recorded from 360 nm to 695 nm with excitation at 355 nm. To avoid bleaching, the monochromator slits on the excitation side were set to 0.8 nm, and on the emission side to 2.5 nm.
The spectra of molar absorptivities (ε in M^−1cm^−1) were calculated using Equation 1, with A being the measured absorption, A260 and ε260 the absorption or molar absorptivity, respectively, at 260 nm.
The fluorescence quantum yields were determined relative to the quantum yield of quinine sulphate in 0.5 M H2SO4 (ϕF=0.546^42, referred to as reference), and calculated using Equation 2, in which subscripts s and r refer to sample and reference, respectively. I is the integrated fluorescence intensity, A the measured absorption of the fluorophore at the excitation wavelength and n is the refractive index of the solvent (H2O or H2SO4, respectively; Eaton D. F.; Pure Appl. Chem. 60, 1107-1114 [1988 ]).
The spectroscopic properties of compounds 7 and 17 were determined under physiological conditions in order to determine the experimental setup for cell studies, with absorption and emission spectra being recorded in DPBS to mimic the ionic strength and salt composition in mammalian cells. To record emission spectra, the excitation wavelength was set to 355 nm, and measurements were performed at room temperature (ca. 22° C.). Molar absorptivities (s) were then calculated using the Beer-Lambert law.

[2] = tested on: Huh-7 cells; test: Dose response of cell uptake, fluorescence in cell lysate; assay type: cell-based, human; conditions: 24 h exposure
Text: Quantification in Cell Lysate: For dose response experiments of the uptake of compounds 7 and 17, total cell lysates of the exposed cells were collected and measured on an Optima Blue Fluostar plate reader (BMG Labtech) with lysis buffer as background. 2CNqATP was excited using 355 nm (±20 nm) filter and emission was collected at through a bandpass filter centred at 460 nm (±12 nm). pATP was excited using 380 nm (±5 nm) filter and emission bandpass filter centred at 410 nm (±5 nm). Lysate buffer fluorescence was subtracted as background, and the fluorescence intensities of the triplicates were averaged. The fluorescence intensity was normalized to the highest added concentration of the compounds (10 μM).
Dose-response experiments were performed at one selected time point (24 h) in order to investigate the concentration dependency of cellular FBA-TP uptake. At the end of exposure, the cells were washed and lysed. The fluorescence of the compounds in the lysate, reflecting the internalized FBA, was measured using a plate reader. […] Compounds 7 and 17 show very different uptake characteristics. Cellular uptake of 2CNqATP increases dramatically with small increases in concentration and reaches a maximum, indicative of uptake saturation, already when 2.5 μM FBA-TP is added to the cells. By contrast, the increase of pATP emission between 0 and 2.5 μM is very small, only 4% of that of 2CNqATP, but when FBA-TP concentration is doubled it increases about 7 times. By adding 10 μM FBA-TP the fluorescence increases about 25 times, compared to 2.5 μM added compound.

[3] = tested on: Huh-7 cells; test: Uptake competition with ATP or adenosine; assay type: cell-based, human; conditions: 2.5 μM compound, 4 h, increasing ATP or adenosine
Method: Uptake of 2CNqATP and pATP was compared with natural adenosine triphosphate (ATP) or adenosine (both purchased from Sigma-Aldrich). The readout is based on the fluorescence of the compounds, detected in living cells by flow cytometry or in cell lysate using a microplate reader following co-administration with increasing concentrations of natural ATP or adenosine.
Cells were seeded in a 96-well plate. Treatment solutions with ATP or adenosine were prepared by stepwise dilution in CCM to reach the concentrations shown in FIG. 7. 2CNqATP or pATP were added at a concentration of 2.5 μM. The cells were incubated for 4 h at 37° C. and 5% CO2. Cell morphology was checked under a light microscope.
For flow cytometry, the treated cells were washed three times with DPBS and detached with 0.25% trypsin-EDTA, which was then neutralized with CCM. Samples were transferred to a 96 U-well plate for high throughput readout on a BD LSRFortessa flow cytometer. Samples were excited using a 405 nm laser and emission passed through a bandpass filter centred at 450 nm (±20 nm).
For lysate readout, cells were lysed in 5x passive lysis buffer (Promega) for 1 h rocking at room temperature (ca. 22° C.). Fluorescence was recorded on an Optima Blue Fluostar plate reader (BMG Labtech). 2CNqATP was excited at 355 nm (±20 nm) and emission was detected using bandpass filter centered at 460 nm (±12 nm). […]

[4] = tested on: Huh-7 cells; test: alamarBlue cell viability (metabolic activity) assay; assay type: cell-based; conditions: lower doses, 24 h exposure
Method: The Huh-7 human liver cell line was used.
After 24 h exposure with compounds 7 or 17, the conditioned medium was removed from the cells and used for the LDH leakage assay (see below). Freshly prepared alamarBlue cell viability reagent (Invitrogen, diluted 1:10 in CCM) was added, followed by incubation for 3 h at 37° C. and 5% CO2. The resulting resorufin fluorescence was read using an Optima Fluostar plate reader (BMG Labtech) Ex: 544 nm/Em: 590 nm. Dimethyl sulfoxide 5% and CCM alone (i.e. compounds 7 and 17 0 μM) were used as positive and negative controls for cell death, respectively.

[5] = tested on: Huh-7 cells; test: Lactate dehydrogenase (LDH) leakage assay (cell membrane integrity); conditions: all exposure conditions, 24 h; in parity with untreated control cells
Method: The Huh-7 human liver cell line was used. […] For sub-cultivation the adherent cells were washed twice with DPBS, containing no calcium or magnesium, and detached with 0.25% trypsin ethylenediaminetetraacetic acid 1x (trypsin-EDTA, Gibco, with phenol red). For seeding, the cells were counted after trypsin neutralization, diluted to the desired number of cells (Table 2) and thereafter incubated at 37° C. with 5% CO2 for 24 h before experiments.
Prior to treatment, the conditioned medium was removed from the Huh-7 cells, and the compounds (stock solution in DPBS diluted in CCM) were added to the cells for different exposure times. Unexposed cells were treated the same way, with the same amount of added DPBS to CCM, instead of the compounds. Two different cytotoxicity assays (alamarBlue to measure metabolic activity and LDH leakage to measure cell membrane integrity) were performed in parallel using the cells and the culture medium from each sample, respectively. Treatments were done in triplicates and the experiment was repeated twice.
Lactate Dehydrogenase (LDH) Leakage Assay: To test for released LDH, the CyQUANT LDH Cytotoxicity Assay kit (Invitrogen) was used. […] Maximum LDH release were determined by treating cells with a 1:10 dilution of lysis buffer in serum free medium for 30 min at 37° C. and 5% CO2.

Substance	absorption band peaks [1]	εmax, FBA χ ΦF [1] [M⁻¹ cm⁻¹]	λabs, max [1] [nm]	ε405, FBA χ ΦF [1] [M⁻¹ cm⁻¹]	λem, max [1] [nm]	ΦF [1] [%]	fold increase of lysate fluorescence at 10 μM compared to 2.5 μM [2]	fold increase of lysate fluorescence when concentration is doubled from 2.5 μM [2]	increase of emission between 0 and 2.5 μM relative to that of 2CNqATP [2] [%]	uptake competition with ATP and adenosine [3]	comparison of cell viability at lower doses [4]	added concentration at which uptake reaches maximum (saturation) [2] [µM]	level of released LDH [5]
((2R,3S,4R,5R)-5-(2,3,5,6-tetraazacyclopenta[de]tetracen-2(6H)-yl)-3,4-dihydroxytetrahydrofuran-2-yl)methyl hydrogen triphosphate [pATP]	370 nm and 386 nm	6000	386	909	420	49	about 25 times	about 7 times	4	also competes with ATP and adenosine, but the effect is considerably weaker	–	–	–
((2R,3S,4R,5R)-5-(8-cyano-2,3,5,6-tetraazaaceanthrylen-2(6H)-yl)-3,4-dihydroxytetrahydrofuran-2-yl)methyl hydrogen triphosphate [2CNqATP]	–	4900	352	504	463	47	–	–	–	competes with both ATP and adenosine with a stronger competition effect for ATP at low concentrations	slightly more toxic than pATP	2.5	about 10%

— patent US20240209016A1, “FLUORESCENT NUCLEOSIDE PHOSPHATES” (STEALTH LABELS BIOTECH AB, priority 2021, published 2024)
